Values quoted from earlier work, collected in PubChem BioAssay AID1259409 (Chemical Carcinogenesis Research Information System (CCRIS), 2018).

Tested on: rodent chemically induced tumor inhibition, incidence and multiplicity
Assay: CCRIS tumor inhibitor studies

In the case of `C[N+](C)(C)CCO`, the “tumour outcome (control, treated, inhibition, significance)” value (Carcinogen: 3'-METHYL-4-DIMETHYLAMINOAZOBENZENE, 55-80-1, Dose [Inhibitor]: 0.1% IN DIET DAILY FOR 4 WK STARTING AFTER 4 WK OF CARCINOGEN TREATMENT (STUDY DURATION: 20 WK), Route [Inhibitor]: ORAL, Species: RAT, Target Tissue: Type of Lesion: LIVER: TUMOR, Dose [Carcinogen]: 0.064% IN DIET DAILY FOR 8 WK 4 WK BEFORE AND ANOTHER 4 WK AFTER AGENT TREATMENT, Promoter: NONE USED) is listed as 7/9 (78%), 9/12 (75%), 4%, not calculated, the “tumour outcome (control, treated, inhibition, significance)” value (Carcinogen: DIETHYLNITROSAMINE, 55-18-5, Dose [Inhibitor]: 0, 1% IN DIET BEGINNING 1 WK POST CARCINOGEN DOSE (STUDY DURATION: 52 WK), Route [Inhibitor]: ORAL, Species: MOUSE, Strain/Sex: C3H/MALE, Target Tissue: Type of Lesion: LIVER: ADENOMA, Dose [Carcinogen]: 150 MG/KG ONCE, Promoter: PHENOBARBITAL, 50-06-6) is listed as 16%, 11%, 31%, not calculated and the “tumour outcome (control, treated, inhibition, significance)” value (Carcinogen: DIETHYLNITROSAMINE, 55-18-5, Dose [Inhibitor]: 0, 1% IN DIET BEGINNING 1 WK POST CARCINOGEN DOSE (STUDY DURATION: 52 WK), Route [Inhibitor]: ORAL, Species: MOUSE, Strain/Sex: C3H/MALE, Target Tissue: Type of Lesion: LIVER: CARCINOMA, Dose [Carcinogen]: 150 MG/KG ONCE, Promoter: PHENOBARBITAL, 50-06-6) is listed as 74%, 72%, 3%, not calculated. For the same compound, the “tumour outcome (control, treated, inhibition, significance)” value (Carcinogen: DIETHYLNITROSAMINE, 55-18-5, Dose [Inhibitor]: 0, 1% IN DIET BEGINNING 1 WK POST CARCINOGEN DOSE (STUDY DURATION: 52 WK), Route [Inhibitor]: ORAL, Species: MOUSE, Strain/Sex: C3H/MALE, Target Tissue: Type of Lesion: LUNG: ADENOMA OR ADENOCARCINOMA, Dose [Carcinogen]: 150 MG/KG ONCE, Promoter: NONE USED) was 6/14 (43%), 13/24 (54%), -26%, not calculated, the “tumour outcome (control, treated, inhibition, significance)” value (Carcinogen: DIETHYLNITROSAMINE, 55-18-5, Dose [Inhibitor]: 0, 1% IN DIET BEGINNING 1 WK POST CARCINOGEN DOSE (STUDY DURATION: 52 WK), Route [Inhibitor]: ORAL, Species: MOUSE, Strain/Sex: C3H/MALE, Target Tissue: Type of Lesion: LUNG: ADENOMA OR ADENOCARCINOMA, Dose [Carcinogen]: 150 MG/KG ONCE, Promoter: PHENOBARBITAL, 50-06-6) was 7/19 (37%), 4/18 (22%), 41%, not calculated and the “tumour outcome (control, treated, inhibition, significance)” value (Carcinogen: DIETHYLNITROSAMINE, 55-18-5, Dose [Inhibitor]: 0, 1% IN DIET BEGINNING 1 WK PRIOR TO POST CARCINOGEN DOSE (STUDY DURATION: 52 WK), Route [Inhibitor]: ORAL, Species: MOUSE, Strain/Sex: C3H/MALE, Target Tissue: Type of Lesion: LIVER: ADENOMA, Dose [Carcinogen]: 150 MG/KG ONCE, Promoter: NONE USED) was 14%, 21%, -50%, not calculated. For the same compound, the “tumour outcome (control, treated, inhibition, significance)” value (Carcinogen: ETHIONINE, 13073-35-3, Dose [Inhibitor]: 2.1 MMOL/100 G DIET DAILY FOR 8 MO ADMINISTERED SIMULTANEOUSLY WITH CARCINOGEN FOLLOWED BY 2 MO ON BASAL DIET (STUDY DUR, Route [Inhibitor]: ORAL, Species: RAT, Strain/Sex: WISTAR/MALE, FEMALE, Target Tissue: Type of Lesion: LIVER: CARCINOMA, Dose [Carcinogen]: 0.25% OF DIET DAILY FOR 8 MO, Promoter: NONE USED) was 9/10 (90%), 5/9 (56%), 38%, not calculated, the “tumour outcome (control, treated, inhibition, significance)” value (Carcinogen: ETHIONINE, 13073-35-3, Dose [Inhibitor]: 4.2 MMOL/100 G DIET DAILY FOR 8 MO ADMINISTERED SIMULTANEOUSLY WITH CARCINOGEN FOLLOWED BY 4 MO ON BASAL DIET (STUDY DUR, Route [Inhibitor]: ORAL, Species: RAT, Strain/Sex: WISTAR/MALE, Target Tissue: Type of Lesion: LIVER: CARCINOMA, Dose [Carcinogen]: 0.25% OF DIET DAILY FOR 8 MO, Promoter: NONE USED) was 8/8 (100%), 6/10 (60%), 40%, not calculated and the “tumour outcome (control, treated, inhibition, significance)” value (Carcinogen: ETHIONINE, 13073-35-3, Dose [Inhibitor]: 5.7 MMOL/100 G DIET DAILY FOR 8 MO ADMINISTERED SIMULTANEOUSLY WITH CARCINOGEN FOLLOWED BY 4 MO ON BASAL DIET (STUDY DUR, Route [Inhibitor]: ORAL, Species: RAT, Strain/Sex: WISTAR/MALE, Target Tissue: Type of Lesion: LIVER: CARCINOMA, Dose [Carcinogen]: 0.25% OF DIET DAILY FOR 8 MO, Promoter: NONE USED) was 8/8 (100%), 7/10 (70%), 30%, not calculated.

In the case of `CC[C@H](C)C(=O)O[C@H]1CCC=C2C=C[C@H](C)[C@H](CC[C@@H]3C[C@@H](O)CC(=O)O3)[C@H]21`, the “tumour outcome (control, treated, inhibition, significance)” value (Carcinogen: N-ETHYL-N-HYDROXYETHYLNITROSAMINE, 13147-25-6, Dose [Inhibitor]: 0, 0.02% IN DIET BEGINNING 23 WK POST LAST CARCINOGEN DOSE AND CONTINUING TO WK 40 (STUDY DURATION: 40 WK), Route [Inhibitor]: ORAL, Species: RAT, Strain/Sex: WISTAR/MALE, Target Tissue: Type of Lesion: KIDNEY: RENAL CELL TUMORS, Dose [Carcinogen]: 0.1% IN DIET FOR 2 WK, Promoter: NONE USED) is given as 6/17 (35%), 1/10 (10%), 71%, not calculated.

For `CC(C)[C@@H](C)/C=C/[C@@H](C)[C@H]1CC[C@H]2C3=CC=C4C[C@@H](O)CC[C@]4(C)[C@H]3CC[C@]12C`, the “tumour outcome (control, treated, inhibition, significance)” value (Carcinogen: 7,12-DIMETHYLBENZ[A]ANTHRACENE, 57-97-6, Dose [Inhibitor]: 0, 2 UMOL IN 100 µL ACETONE:DIMETHYLSULFOXIDE (9:1) 2/WK FOR 18 WK APPLIED 30 MIN PRIOR TO EACH PROMOTER DOSE (STUDY DUR, Route [Inhibitor]: DERMAL, Species: MOUSE, Strain/Sex: ICR/FEMALE, Target Tissue: Type of Lesion: SKIN: PAPILLOMA, Dose [Carcinogen]: 50 UG IN 100 µL ACETONE ONCE, Promoter: 12-O-TETRADECANOYLPHORBOL-13-ACETATE, 16561-29-8) is given as 100%, 40%, 60%, not calculated.
